Patent publication US9062067B2, “Process for preparation of darunavir and darunavir ethanolate of fine particle size” (Lupin Limited, priority 2009, dated 2015)

Key:
Bulk and tapped density = format: physicochemical; conditions: after jet mill micronization, Example 4
[1] = Particle size distribution (Malvern mastersizer); format: physicochemical; conditions: after jet mill micronization, Example 4
From the text: The particle size of the darunavir ethanolate obtained by the process of present invention can be determined by any method known in the art such as laser diffraction, sieve analysis, microscope observation, sedimentation etc. Malvern mastersizer is an instrument employed for particle size determination in the present invention.

For `CC(C)CN(C[C@@H](O)[C@H](Cc1ccccc1)NC(=O)O[C@H]1CO[C@H]2OCC[C@H]21)S(=O)(=O)c1ccc(N)cc1` [darunavir ethanolate, Darunavir ethanolate], the Bulk density (Bulk and tapped density) was 0.42 g/mL, the Tapped density (Bulk and tapped density) was 0.72 g/mL and the “Particle size distribution d0.1” value [1] was 2 μm. The “Particle size distribution d0.5” value [1] was 18 μm and the “Particle size distribution d0.9” value [1] was 97 μm.
